Measured values taken from patent US11466013B2 (Betta Pharmaceuticals Co., LTD, priority 2018, dated 2022).

How the values were obtained:
ERK1 = ERK1 (Homo sapiens, UniProt P27361); experiment: Kinase assay (Caliper, FAM-labeled peptide), ERK1; type: biochemical
Protocol: (§1) The compound was diluted to the desired concentration with DMSO, transferred 100 μL to a 96-well plate, and performed a gradient dilution 10 μL of compound from each well was taken and mixed with 90 μL of kinase buffer, and then transferred 5 μL from each well to a 384-well plate. Kinase and FAM-labeled peptide and ATP were added to 1× kinase alkaline buffer to obtain 2.5× enzyme solution and 2.5× peptide solution, 10 μL of 2.5× enzyme solution was added to the 384-well assay plate. After incubating for 10 minutes at room temperature, 10 μL of 2.5× peptide solution was added to the 384-well plate. After reacting for a specific time at […], 25 μL of termination buffer was added to stop reaction. After reading the collected data on Caliper, the data was converted to inhibition percentage. Inhibition percentage=(maximum value−conversion value)/(maximum value−minimum value)*100.
(§2) The “maximum” is the DMSO control, the “minimum” indicates the low control.
(§3) Graphpad Prism software was used to perform curve fitting and obtain IC50 value.

ERK2 = ERK2 (Homo sapiens, UniProt P28482); experiment: Kinase assay (Caliper, FAM-labeled peptide), ERK2; type: biochemical
Protocol: as §1, §2, §3

ERK2, sequence (P28482 whole entry): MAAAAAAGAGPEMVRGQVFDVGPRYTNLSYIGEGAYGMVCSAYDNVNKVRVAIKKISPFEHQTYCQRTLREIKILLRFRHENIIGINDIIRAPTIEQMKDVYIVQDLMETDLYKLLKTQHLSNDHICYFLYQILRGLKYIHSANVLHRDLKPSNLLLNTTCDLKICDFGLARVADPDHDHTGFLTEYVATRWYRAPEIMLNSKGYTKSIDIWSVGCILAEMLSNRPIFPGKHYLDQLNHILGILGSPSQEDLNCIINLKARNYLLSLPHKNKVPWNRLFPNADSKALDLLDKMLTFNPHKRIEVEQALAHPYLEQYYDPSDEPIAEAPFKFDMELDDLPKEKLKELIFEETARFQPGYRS
ERK1, sequence (P27361 whole entry): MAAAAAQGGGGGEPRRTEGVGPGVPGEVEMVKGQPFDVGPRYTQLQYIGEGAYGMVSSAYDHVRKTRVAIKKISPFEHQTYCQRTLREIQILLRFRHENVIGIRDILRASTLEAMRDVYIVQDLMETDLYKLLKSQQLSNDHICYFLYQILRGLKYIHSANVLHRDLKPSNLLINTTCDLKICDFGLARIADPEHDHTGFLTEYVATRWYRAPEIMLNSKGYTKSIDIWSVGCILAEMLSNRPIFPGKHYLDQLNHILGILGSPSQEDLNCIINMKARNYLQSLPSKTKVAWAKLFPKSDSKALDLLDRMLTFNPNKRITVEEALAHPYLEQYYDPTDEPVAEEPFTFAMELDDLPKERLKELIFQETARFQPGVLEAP

CC(C)Nc1cc(-c2c[nH]c(C(=O)NCc3ccccc3CO)c2)c(Cl)cn1 [Example 1, 4-(5-chloro-2-(isopropylamino)pyridin-4-yl)-N-(2-(hydroxymethyl)benzyl)-1H-pyrrole-2-methyl amide]
IC50 (ERK1): 3 nM | IC50 (ERK2): 3.4 nM

CC(C)Nc1cc(-c2cnc(C(=O)NCc3ccccc3CO)s2)c(Cl)cn1 [Example 3, 5-(5-chloro-2-(isopropylamino)pyridin-4-yl)-N-(2-(hydroxymethyl)benzyl) thiazole-2-formamide]
IC50 (ERK1): 0.9 nM | IC50 (ERK2): 0.7 nM

CC(C)Nc1cc(-c2cnc(C(=O)NCc3ccc(F)cc3CO)s2)c(Cl)cn1 [Example 4, 5-(5-chloro-2-(isopropylamino)pyridin-4-yl)-N-(4-fluoro-2-(hydroxymethyl)benzyl) thiazole-2-formamide]
IC50 (ERK1): 1.8 nM | IC50 (ERK2): 1.8 nM

CC(C)Nc1cc(-c2cnc(C(=O)NCc3cccc(F)c3CO)s2)c(Cl)cn1 [Example 5, 5-(5-chloro-2-(isopropylamino)pyridin-4-yl)-N-(3-fluoro-2-(hydroxymethyl)benzyl) thiazole-2-formamide]
IC50 (ERK1): 1.5 nM | IC50 (ERK2): 1.2 nM

CC(C)Nc1cc(-c2cc3n(c2)CCN(Cc2ccccc2CO)C3=O)c(Cl)cn1 [Example 14, 7-(5-chloro-2-(isopropylamino)pyridin-4-yl)-2-(2-(hydroxymethyl)benzyl)-3,4-dihydropyrrolo[1,2-a] pyrazine-1(2H)-one]
IC50 (ERK1): 0.7 nM | IC50 (ERK2): 0.6 nM

CC(C)Nc1cc(-c2cc3n(c2)CCN(Cc2cc(F)c(F)cc2CO)C3=O)c(Cl)cn1 [Example 19, 7-(5-chloro-2-(isopropylamino)pyridine-4-yl)-2-(4,5-difluoro-2-(hydroxymethyl)benzyl)-3,4-dihydropyrrolo[1,2-a]pyrazine-1(2H)-one]
IC50 (ERK1): 0.3 nM | IC50 (ERK2): 0.6 nM

CC(C)Nc1cc(-c2cc3n(c2)CC2(CN(C)C2)CN(Cc2ccccc2CO)C3=O)c(Cl)cn1 [Example 25]
IC50 (ERK1): 1.3 nM | IC50 (ERK2): 0.84 nM

CC(C)Nc1cc(-c2cc3n(c2)CC2(COC(C)(C)OC2)CN(Cc2ccccc2CO)C3=O)c(Cl)cn1 [Example 26, 8-(5-Chloro-2-(isopropylamino)pyridin-4-yl)-2-(2-(hydroxymethyl)benzyl)-2′,2′-dimethyl-2,3-dihydro-1H,5H-spiro[pyrrolo[1,2-a][1,4]diazepine-4,5′-[1,3]dioxane]-1-one]
IC50 (ERK1): 1.3 nM | IC50 (ERK2): 1.4 nM

CC(C)Nc1cc(-c2cc3n(c2)CC2(COC(C)(C)OC2)CN(Cc2cc(F)ccc2CO)C3=O)c(Cl)cn1 [Example 28, 8-(5-chloro-2-(isopropylamino)pyridin-4-yl)-2-(5-fluoro-2-(hydroxymethyl)benzyl)-2′,2′-dimethyl-2,3-dihydro-1h,5h-spiro[pyrrolo [1,2-a][1,4]diazepine-4,5′-[1,3]dioxane]-1-one]
IC50 (ERK1): 0.9 nM | IC50 (ERK2): 1.6 nM

O=C1c2cc(-c3cc(NC4COC4)ncc3Cl)cn2CCN1Cc1cc(F)ccc1CO [Example 30, 7-(5-Chloro-2-(oxetan-3-ylamino)pyridin-4-yl)-2-(5-fluoro-2-(hydroxymethyl)benzyl)-3,4-dihydropyrrolo[1,2-a]pyrazine-1(2H)-one]
IC50 (ERK1): 0.31 nM | IC50 (ERK2): 0.2 nM

O=C1c2cc(-c3cc(NC4CCOC4)ncc3Cl)cn2CCN1Cc1cc(F)ccc1CO (centres unmarked) [Example 31, 7-(5-Chloro-2-((tetrahydrofuran-3-yl)amino)pyridin-4-yl)-2-(5-fluoro-2-(hydroxymethyl)benzyl)-3,4-dihydropyrrolo[1,2-a]pyrazine-1(2H)-one]
IC50 (ERK1): 0.3 nM | IC50 (ERK2): 0.32 nM

Cc1cnc(NC2COC2)nc1-c1cc2n(c1)CCN(Cc1cc(F)ccc1CO)C2=O [Example 32, 2-(5-Fluoro-2-(hydroxymethyl)benzyl)-7-(5-methyl-2-(oxetan-3-ylamino)pyrimidine-4-yl)-3,4-dihydropyrrolo[1,2-a]pyrazine-1(2H)-one]
IC50 (ERK1): 0.44 nM | IC50 (ERK2): 0.27 nM

COC[C@H]1Cn2cc(-c3cc(NC(C)C)ncc3Cl)cc2C(=O)N1Cc1cc(F)ccc1CO [Example 34, (R)-7-(5-chloro-2-(isopropylamino)pyridin-4-yl)-2-(5-fluoro-2-(hydroxymethyl)benzyl)-3-(methoxymethyl)-3,4-dihydropyrrolo[1,2-a]pyrazine-1(2H)-one]
IC50 (ERK1): 0.2 nM | IC50 (ERK2): 0.4 nM

CC(C)Nc1cc(-c2cc3n(c2)CC(CO)CN(Cc2cc(F)ccc2CO)C3=O)c(Cl)cn1 (centres unmarked) [Example 42, 8-(5-chloro-2-(isopropylamino)pyridin-4-yl)-2-(5-fluoro-2-(hydroxymethyl)benzyl)-4-(hydroxymethyl)-2,3,4,5-tetrahydro-1H-pyrrolo[1,2-a][1,4]diazepine-1-one]
IC50 (ERK1): 2.5 nM | IC50 (ERK2): 1.6 nM

CC(C)Nc1cc(-c2cc3n(c2)CC2(COCOC2)CN(Cc2cc(F)ccc2CO)C3=O)c(Cl)cn1 [Example 43, 8-(5-Chloro-2-(isopropylamino)pyridin-4-yl)-2-(5-fluoro-2-(hydroxymethyl)benzyl)-2,3-dihydro-1H,5H-spiro[pyrrolo[1,2-a][1,4]diazepine-4,5′-[1,3]dioxane]-1-one]
IC50 (ERK1): 0.6 nM | IC50 (ERK2): 0.5 nM

COC[C@H]1Cn2cc(-c3cc(NC(C)C)ncc3Cl)nc2C(=O)N1Cc1cc(F)ccc1CO [Example 46, (R)-2-(5-chloro-2-(isopropylamino)pyridin-4-yl)-7-(5-fluoro-2-(hydroxymethyl)benzyl)-6-(methoxymethyl)-6,7-dihydroimidazo[1,2-a]pyrazine-8-(5H)-one]
IC50 (ERK1): 2.8 nM | IC50 (ERK2): 1.4 nM

COC[C@H]1Cn2cc(-c3c(Cl)cnc(Nc4ccnn4C)c3F)cc2C(=O)N1Cc1cc(F)ccc1CO [Example 47, (H)-7-(5-chloro-3-fluoro-2-((1-methyl-1H-pyrazol-5-yl)amino)pyridin-4-yl)-2-(5-fluoro-2-(hydroxymethyl)benzyl)-3-(methoxymethyl)-3,4-dihydropyrrolo[1,2-a]pyrazine-1(2H)-ketone]
IC50 (ERK2): 0.9 nM

Cc1ccccc1Nc1ncc(C)c(-c2cc3n(c2)CCN(Cc2cc(F)ccc2CO)C3=O)n1 [Example 49]
IC50 (ERK1): 0.9 nM | IC50 (ERK2): 0.8 nM

COCC1(CO)CN(Cc2cc(F)ccc2CO)C(=O)c2cc(-c3cc(NC(C)C)ncc3Cl)cn2C1 (centres unmarked) [Example 56, 8-(5-chloro-2-(isopropylamino)pyridin-4-yl)-2-(5-fluoro-2-(hydroxymethyl)benzyl)-4-(hydroxymethyl)-4-(methoxymethyl)-2,3,4,5-4,5-tetrahydro-1h-pyrrolo [1,2-a][1,4]diazepine-1-one]
IC50 (ERK1): 0.95 nM | IC50 (ERK2): 0.64 nM

COC(=O)C1Cn2cc(-c3cc(NC(C)C)ncc3Cl)cc2C(=O)N1Cc1cc(F)ccc1CO (centres unmarked) [Example 57, Methyl 7-(5-chloro-2-(isopropylamino)pyridin-4-yl)-2-(5-fluoro-2-(hydroxymethyl)benzyl)-1-oxo-1,2,3,4-tetrahydropyrrolo [1,2-a]pyrazine-3-carboxylic acid ethyl ester]
IC50 (ERK1): 0.9 nM | IC50 (ERK2): 0.5 nM

CC(C)Nc1cc(-c2cc3n(c2)C[C@H](CO)N(Cc2cc(F)ccc2CO)C3=O)c(Cl)cn1 [Example 59, (R)-7-(5-chloro-2-(isopropylamino)pyridin-4-yl)-2-(5-fluoro-2-(hydroxymethyl)benzyl)-3-(hydroxymethyl)-3,4-dihydropyrrolo[1,2-a] pyrazine-1(2H)-one]
IC50 (ERK1): 0.51 nM | IC50 (ERK2): 0.49 nM

COC[C@H]1Cn2cc(-c3cc(NC4COC4)ncc3Cl)cc2C(=O)N1Cc1cc(F)ccc1CO [Example 60, (R)-7-(5-chloro-2-(oxacyclobutane-3-ylamino)pyridine-4-yl)-2-(5-fluoro-2-(hydroxymethyl)benzyl)-3-(methoxymethyl)-3,4-dihydropyrrolo[1,2-a] pyrazine-1(2H)-one]
IC50 (ERK1): 0.54 nM | IC50 (ERK2): 0.46 nM

COC[C@H]1Cn2cc(-c3cc(NC4CCOC4)ncc3Cl)cc2C(=O)N1Cc1cc(F)ccc1CO (stereo partly drawn) [Example 61, (3R)-7-(5-chloro-2-((tetrahydrofuran-3-yl)amino)pyridine-4-yl)-2-(5-fluoro-2-(hydroxymethyl)benzyl)-3-(methoxymethyl)-3,4-dihydropyrrolo[1,2-a] pyrazine-1(2H)-one]
IC50 (ERK1): 0.38 nM | IC50 (ERK2): 0.41 nM

COC[C@H]1Cn2cc(-c3cc(NC4CC(F)(F)C4)ncc3Cl)cc2C(=O)N1Cc1cc(F)ccc1CO [Example 63, (R)-7-(5-chloro-2-((3,3-difluorocyclobutyl)amino)pyridine-4-yl)-2-(5-fluoro-2-(hydroxymethyl)benzyl)-3-(methoxymethyl)-3,4-dihydropyrrolo[1,2-a] pyrazine-1(2H)-one]
IC50 (ERK1): 1.5 nM | IC50 (ERK2): 1.6 nM

COC[C@H]1Cn2cc(-c3cc(NCC(C)(C)O)ncc3Cl)cc2C(=O)N1Cc1cc(F)ccc1CO [Example 65, (R)-7-(5-chloro-2-((2-hydroxy-2-methylpropyl)amino)pyridine-4-yl)-2-(5-fluoro-2-(hydroxymethyl)benzyl)-3-(methoxymethyl)-3,4-dihydropyrrolo[1,2-a] pyrazine-1(2H)-one]
IC50 (ERK1): 0.97 nM | IC50 (ERK2): 1.6 nM

COC[C@H]1Cn2cc(-c3cc(Nc4c(C)cnn4C)ncc3Cl)cc2C(=O)N1Cc1cc(F)ccc1CO [Example 97, (R)-7-(5-chloro-2-((1,4-dimethyl-1h-pyrazole-5-yl)amino)pyridine-4-yl)-2-(5-fluoro-2-(hydroxymethyl)benzyl)-3-(methoxymethyl)-3,4-dihydropyrrolo[1,2-a] pyrazine-1(2H)-one]
IC50 (ERK2): 0.97 nM
